From patent publication US11617733B2, “Bicyclic compound and use thereof for medical purposes” (ONO PHARMACEUTICAL CO., LTD., priority 2009, dated 2023)

How the values were obtained:
mouse EP1 receptor = biological target: T1, mouse EP1 receptor (Mus musculus, UniProt P35375); assay: EP1 agonist activity (intracellular calcium concentration) in EP1-CHO cells; type: cell-based; conditions: for EC50: EP1-CHO cells, intracellular calcium concentration, read-out: Agonist activity on various prostanoid receptors: EC50 value, EP1
T1 construct: expressed in transfected cells; host or cells: CHO cells (EP1-CHO)
T1 sequence (P35375 1-405): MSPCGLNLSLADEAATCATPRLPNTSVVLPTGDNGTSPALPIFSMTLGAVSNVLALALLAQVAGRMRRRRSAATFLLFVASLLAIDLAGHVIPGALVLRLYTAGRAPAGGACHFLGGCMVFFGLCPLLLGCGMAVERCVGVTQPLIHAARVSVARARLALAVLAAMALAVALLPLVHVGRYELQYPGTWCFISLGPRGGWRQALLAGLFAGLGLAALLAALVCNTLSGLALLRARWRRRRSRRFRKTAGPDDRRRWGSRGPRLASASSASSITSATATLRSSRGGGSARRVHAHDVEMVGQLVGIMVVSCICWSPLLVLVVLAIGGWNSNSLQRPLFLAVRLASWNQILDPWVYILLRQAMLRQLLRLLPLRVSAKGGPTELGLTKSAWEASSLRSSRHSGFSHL
Excerpt: (§1) (1-1) Measurement of Agonist Activity on Various Mouse Prostanoid Receptors
(§2) Using CHO cells (FP-CHO, EP1-CHO and IP-CHO, respectively) in which various mouse prostanoid receptors were forcibly expressed, respectively, agonist activity of test compounds on various prostanoid receptors was studied employing an intracellular calcium concentration regarding FP and EP1, and an intracellular cyclic AMP (hereinafter, abbreviated as cAMP) production amount regarding IP, as an index.
(§3) The test compound and a control substance (PGE2 and iroprost) were dissolved with dimethyl sulfoxide (DMSO) to prepare a 10 mmol/L solution. Regarding the prepared 10 mmol/L solution, upon use, the 10 mmol/L solution was thawed, stepwisely-diluted using DMSO, and diluted with a buffer solution for measurement or a buffer solution for measurement 2, which was subjected to an experiment.
(§4) Cells forcibly expressing various mouse prostanoid receptors were standing-cultured at 37° C. in the presence of 5% CO2 using an α-MEM medium (Sigma) (for culturing FP-CHO and EP1-CHO) containing inactivated (56° C., 30 minutes) 9.8 vol % dialysed-FBS (Invitrogen) and penicillin-streptomycin-glutamine (GIBCO-BRL), or nucleic acid-containing α-MEM (Sigma) (for culturing IP-CHO) containing inactivated (56° C., 30 minutes) 9.8 vol % dialysed-FBS (Invitrogen) and penicillin-streptomycin glutamine (Invitrogen). Subculturing was performed by the following method.
(§5) The medium was removed, and washed with a phosphate-buffered physiological saline not containing Ca^2+ and Mg^2+ two times. A suitable amount of trypsin-EDTA (Invitrogen) was added, this was incubated at 37° C. for about 3 minutes, cells were peeled, and a medium having a volume which is 10-fold a volume of trypsin-EDTA was added to stop an enzymatic reaction. After cells were recovered (120 g) into a centrifuging tube, and centrifuged at room temperature for 3 minutes, the supernatant was removed. Cells were suspended in a suitable amount of a medium, and seeded in a culturing flask.
(§6) (1-2) Measurement of FP and EP1 Agonist Activity (Measurement of Intracellular Calcium Concentration)
(§7) Regarding FP-CHO and EP1-CHO, by the same method as that of subculturing, cells were peeled and suspended and, before two days from measurement, the suspension was seeded on a 96-well UV plate so that the cell number per well became 1.0×10^4, and standing-cultured at 37° C. in the presence of 5% CO2. On the measurement day, after the medium was removed from each well of the 96-well UV plate, each well was washed with a phosphate-buffered physiological saline not containing Ca^2+ and Mg^2+ once. To each well was added 100 μL of a medium containing 5 μmol/L fura 2-AM (DOJINDO), 2.5 mmol/L Probenecid (Sigma), 20 μmol/L indometacin (Sigma) and 10 mmol/L HEPES (Invitrogen), and this was incubated for about 60 minutes in a CO2 incubator. After completion of the incubation, the medium was removed, and this was washed with a buffer solution for measurement (Hank's balanced salt solution (Nissui Pharmaceutical Co., Ltd., 9.8 g of the present product was dissolved in 1 L distilled water) containing 0.1 or 1 w/v % bovine serum albumin, 2 μmol/L indometacin, 2.5 mmol/L Probenecid and 10 mmol/L HEPES-NaOH (pH 7.4)) two times. To each well was added 120 μL of a buffer solution for measurement, and this was allowed to stand in a CO2 incubator for 30 minutes, and stabilized, which was subjected to an experiment.
(§8) The 96-well UV plate was set in a fluorescent spectral photometer (FDSS-3000, Hamamatsu Photonics K.K.), and an intracellular calcium concentration was measured. A buffered solution for measurement ([…]) containing an agonist at a variety of concentrations was added to perform a reaction. Measurement of an intracellular calcium concentration was performed by irradiating cells with excited light of 340 nm and 380 nm alternately, measuring a fluorescent intensity at 500 nm, and obtaining a fluorescent intensity ratio of 2-wavelength excitation. […]

mouse IP receptor = biological target: T2, mouse IP receptor (Mus musculus, UniProt P43252); assay: IP agonist activity (cAMP concentration) in IP-CHO cells; type: cell-based; conditions: for EC50: IP-CHO cells, cAMP production, read-out: Agonist activity on various prostanoid receptors: EC50 value, IP
T2 construct: expressed in transfected cells; host or cells: CHO cells (IP-CHO)
Excerpt: as §1, §2, §3, §4, §5
(1-3) Measurement of IP Agonist Activity (Measurement of cAMP Concentration)
On the measurement day, a medium was removed, and IP-CHO was washed with a phosphate-buffered physiological saline containing 2 mmol/L EDTA and not containing Ca^2+ and Mg^2+ once. A suitable amount of a phosphate-buffered physiological containing 2 mmol/L EDTA and not containing Ca^2+ and Mg^2+ was added, this was incubated at 37° C. for about 10 minutes, cells were peeled, cells were recovered (500 g) into a centrifuging tube, and centrifuged at room temperature for 3 minutes, and the supernatant was removed.
Cells were suspended in a suitable amount of a buffer solution for measurement 1 (MEM medium (Invitrogen) containing 0.1 w/v % bovine serum albumin (Sigma) and 2 μmol/L diclofenac (Sigma)), and centrifuged at room temperature for 3 minutes at 500 g, and the supernatant was removed. Cells were suspended in a buffer solution for measurement 2 (MEM medium (Invitrogen) containing 0.1 w/v % bovine serum albumin (Sigma), 2 μmol/L diclofenac (Sigma) and 1 mmol/L 3-isobutyl-1-methylxanthine), and each 25 μL of the suspension was dispensed into a 96-well ½ area plate so that the cell number per well became 5.0×10^4. A buffer solution for measurement 2 (25 μL) containing an agonist at a variety of concentrations was added to perform a reaction at room temperature for 30 minutes. Measurement of a cAMP concentration was performed using the cAMP HTRF HiRange kit (CIS bio International). According to the two step protocol of the kit manual, each 25 μL of cAMP-D2 and cryptate diluted with a lysis buffer were added, and this was incubated at room temperature for 1 hour. After incubation for 1 hour, time resolution fluorescence at 620 nm and 660 nm when excited at 340 nm was measured using Analyst GF (Molecular Device), and a ratio (TRF ratio) was obtained, thereby, a cAMP concentration was calculated from a calibration line. […]

mouse FP receptor = biological target: T3, mouse FP receptor (Mus musculus, UniProt P43117); assay: FP agonist activity (intracellular calcium concentration) in FP-CHO cells; type: cell-based; conditions: for EC50: FP-CHO cells, intracellular calcium concentration, read-out: Agonist activity on various prostanoid receptors: EC50 value, FP
T3 construct: expressed in transfected cells; host or cells: CHO cells (FP-CHO)
Excerpt: as §1, §2, §3, §4, §5, §6, §7, §8

male dog (TOYO Beagle) = assay: Intraocular pressure lowering action in dog after ocular instillation; type: in vivo
Procedure: (2-1) Intraocular Pressure Lowering Action
To one eye of a male dog (TOYO Beagle) which had been sufficiently acclimated in advance was ocular-instilled 30 μL of each test compound (compound of Example 16 (35), compound of Example 16 (3) and compound of Example 16(25)) which had been adjusted with a base (containing citrate buffer pH 6.5, 0.5% polysorbate 80, 1% propylene glycol, 0.01% benzalkonium chloride) to 0.01% (w/v) or 0.001% (w/v), respectively. The other eye was not treated. As a positive control compound, latanoprost which is the known compound was used.
Thereafter, an ocular surface anesthetic (Benoxil eye drops 0.4%, Santen Pharmaceutical Co., Ltd.) was subjected to ocular instillation to locally anesthetize eyes, and an intraocular pressure of each test compound before ocular instillation and after 2, 4, 6, 8, and 24 hours from ocular instillation was measured. An intraocular pressure was measured using a pneumatic applanation flat tonometer (Model 30 Classic, REICHERT). An intraocular pressure lowering rate (%) was calculated by the following equation. Intraocular pressure lowering rate (%)=(intraocular pressure value before ocular instillation−intraocular pressure value at each point)/(intraocular pressure value before ocular instillation)×100 [Mathematic 1]

[1] = tested on: male rabbit (NewZealandWhite); assay: Aqueous humor protein concentration in rabbit after ocular instillation; type: in vivo; conditions: ocular instillation 30 μL, 0.1% (w/v), 0-8 hours
Procedure: (2-2) Assessment of Ocular Stimulating Property and Aqueous Humor Protein Concentration
To one eye of a male rabbit (NewZealandWhite, 2.0 to 3.0 kg) was ocular-instilled 30 μL of the compound of Example 16 (35), the compound of Example 16 (3) and the compound of Example 16 (25) which had been adjusted to 0.1% (w/v) with a base (containing citrate buffer pH 6.5, 0.5% polysorbate 80, 1% propylene glycol, 0.01% benzalkonium chloride), respectively. Thereafter, an aqueous humor in anterior chamber after 0, 1, 2, 4, 6 and 8 hours from ocular instillation was collected, and a protein concentration in the humor was measured. As a comparative compound, the aforementioned methyl ester of the compound of Example 12 described in Patent Literature 2 (i.e. compound of Example 10 described in Patent Literature 2) (hereinafter, abbreviated as Comparative Compound B in some cases) was used.
Regarding any test compound, a dose until a dissolution limit (150 to 1000 μg/mL) was administered and action of each active body was assessed.

T2 sequence (P43252 whole entry): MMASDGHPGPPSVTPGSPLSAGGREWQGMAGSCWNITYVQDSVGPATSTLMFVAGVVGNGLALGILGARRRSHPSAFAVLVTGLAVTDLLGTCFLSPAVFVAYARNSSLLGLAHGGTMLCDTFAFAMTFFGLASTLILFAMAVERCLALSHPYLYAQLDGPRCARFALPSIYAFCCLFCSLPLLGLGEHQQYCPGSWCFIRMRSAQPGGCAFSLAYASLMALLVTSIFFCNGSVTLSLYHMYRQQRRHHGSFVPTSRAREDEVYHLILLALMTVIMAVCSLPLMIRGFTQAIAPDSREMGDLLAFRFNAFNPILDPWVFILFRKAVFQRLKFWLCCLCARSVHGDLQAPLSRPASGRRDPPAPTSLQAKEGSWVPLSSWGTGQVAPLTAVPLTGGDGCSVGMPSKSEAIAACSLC
T3 sequence (P43117 whole entry): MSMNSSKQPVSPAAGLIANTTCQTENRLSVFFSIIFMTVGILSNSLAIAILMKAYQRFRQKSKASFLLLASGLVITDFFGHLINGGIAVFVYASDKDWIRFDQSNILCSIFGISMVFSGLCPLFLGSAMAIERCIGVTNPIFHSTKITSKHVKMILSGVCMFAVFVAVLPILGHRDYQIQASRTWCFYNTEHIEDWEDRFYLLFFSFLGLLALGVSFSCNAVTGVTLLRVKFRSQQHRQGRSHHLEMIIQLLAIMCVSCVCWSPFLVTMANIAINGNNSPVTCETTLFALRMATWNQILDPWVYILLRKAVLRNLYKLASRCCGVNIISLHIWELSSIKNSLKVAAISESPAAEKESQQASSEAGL

Row | Compound | Agonist activity on an EP1 receptor (in words) (mouse EP1 receptor; summary of Table 7) | Agonist activity on an IP receptor (in words) (mouse IP receptor; summary of Table 7) | Agonist activity on a FP receptor (in words) (mouse FP receptor; summary of Table 7) | Intraocular pressure lowering action compared with positive control latanoprost (in words) (male dog (TOYO Beagle)) | Action on protein concentration in aqueous humor (in words) [1] | EC50 (mouse EP1 receptor) [nM] | EC50 (mouse IP receptor) [nM] | EC50 (mouse FP receptor) [nM]
1 | O=C(O)CCC[C@H]1CC[C@@H]2[C@@H](/C=C/[C@@H](O)COc3ccccc3)[C@H](O)C[C@@H]2O1 [Comparative Compound A, reference compound] | has agonist activity | has agonist activity | has agonist activity |  |  |  |  | 
2 | CC(C)OC(=O)CCC[C@H]1CC[C@@H]2[C@@H](/C=C/[C@@H](O)COc3cccc(Cl)c3)[C@H](O)C[C@@H]2OC1 [Example 16 (3), 2-Propanyl 4-{(3S, 5aR, 6R, 7R, 8aS)-6-[(1E, 3R)-4-(3-chlorophenoxy)-3-hydroxy-1-buten-1-yl]-7-hydroxyoctahydro-2H-cyclopenta[b]oxepin-3-yl}butanoate] |  |  |  | stronger intraocular pressure lowering action as compared with latanoprost | no action of raising a protein concentration in an aqueous humor |  |  | 
3 | O=C(O)CCC[C@H]1CC[C@@H]2[C@@H](/C=C/[C@@H](O)COc3cccc(Cl)c3)[C@H](O)C[C@@H]2OC1 [Example 17 (3), 4-{(3S, 5aR, 6R, 7R, 8aS)-6-[(1E, 3R)-4-(3-chlorophenoxy)-3-hydroxy-1-buten-1-yl]-7-hydroxyoctahydro-2H-cyclopenta[b]oxepin-3-yl}butanoic acid] |  |  |  |  |  | 3200 | > 10000 | 3
4 | Cc1cccc(OC[C@H](O)/C=C/[C@@H]2[C@H]3CC[C@H](CCCC(=O)O)CO[C@H]3C[C@H]2O)c1 [Example 17 (4), 4-{(3S, 5aR, 6R, 7R, 8aS)-7-hydroxy-6-[(1E, 3R)-3-hydroxy-4-(3-methylphenoxy)-1-buten-1-yl]octahydro-2H-cyclopenta[b]oxepin-3-yl}butanoic acid] |  |  |  |  |  | > 10000 | > 10000 | 8.8
5 | O=C(O)CCC[C@H]1CC[C@@H]2[C@@H](/C=C/[C@@H](O)COc3ccccc3)[C@H](O)C[C@@H]2OC1 [Example 17 (23), 4-{(3S, 5aR, 6R, 7R, 8aS)-7-hydroxy-6-[(1E, 3R)-3-hydroxy-4-phenoxy-1-buten-1-yl]octahydro-2H-cyclopenta(b]oxepin-3-yl}butanoic acid] |  |  |  |  |  | 100 | > 10000 | 8.3
6 | O=C(O)CCC[C@H]1CC[C@@H]2[C@@H](/C=C/[C@@H](O)COc3cc(F)ccc3F)[C@H](O)C[C@@H]2OC1 [Example 17 (25), 4-{(3S, 5aR, 6R, 7R, 8aS)-6-[(1E, 3R)-4-(2,5-difluorophenoxy)-3-hydroxy-1-buten-1-yl]-7-hydroxyoctahydro-2H-cyclopenta[b]oxepin-3-yl}butanoic acid] |  |  |  |  |  | 857 | > 10000 | 2.4
7 | O=C(O)COC[C@H]1CC[C@@H]2[C@@H](/C=C/[C@@H](O)COc3cc(F)cc(Cl)c3)[C@H](O)C[C@@H]2OC1 [Example 29 (12), ({(3R, 5aR, 6R, 7R, 8aS)-6-[(1E,3R)-4-(3-chloro-5-fluorophenoxy)-3-hydroxy-1-buten-1-yl]-7-hydroxyoctahydro-2H-cyclopenta[b]oxepin-3-yl}methoxy)acetic acid] |  |  |  |  |  | > 10000 | > 10000 | 7.1
8 | O=C(O)CCC[C@H]1CC[C@@H]2[C@@H](/C=C/C(F)(F)COc3ccccc3)[C@H](O)C[C@@H]2OC1 [Example 32, 4-{(3S, 5aR, 6R, 7R, 8aS)-6-[(1E)-3,3-difluoro-4-phenoxy-1-buten-1-yl]-7-hydroxyoctahydro-2H-cyclopenta[b]oxepin-3-yl}butanoic acid] |  |  |  |  |  | > 10000 | > 10000 | 1.6
